“Also recorded” adds a separate entry of the source.
How the values were obtained:
ETAR and CCR2 heteromer = target: T1, ETAR and CCR2 heteromer (Homo sapiens, UniProt P25101+P41597); experiment: Receptor-HIT BRET β-arrestin recruitment assay, ETAR/Rluc8+Barr2/Venus+CCR2; assay type: cell-based; details: HEK293FT cells; for hyperactivation of β-arrestin recruitment to ETAR (ligand-induced BRET): both CCL2/MCP-1 and ET-1 present; for agonist-induced β-arrestin recruitment to ETAR (ligand-induced BRET): no antagonist
T1 construct: expressed in transfected cells; host or cells: HEK293FT
Protocol: HEK293FT cells were seeded in 6-well plates at a density of approximately 700,000 cells/well and maintained at 37° C., 5% CO2 in Complete Media (DMEM containing 0.3 mg/ml glutamine, 100 IU/ml penicillin and 100 μg/ml streptomycin (Thermo Fisher)) supplemented with 10% fetal calf serum (FCS; Bovogen). Transient transfections were carried out 24 h after seeding using FuGene6 (Promega) according to manufacturer instructions. 24 h post-transfection, cells were washed with PBS, detached using 0.05% trypsin/0.53 mM EDTA, resuspended in phenol red free Complete Media containing 5% FCS and added to a poly-L-lysine-coated white 96-well microplate (Greiner Bio-One). 48 h post-transfection, bioluminescence resonance energy transfer (BRET) assays were carried out following pre-incubation of cells with EnduRen™ (Promega) at a final concentration of 30 μM, at 37° ° C., 5% CO2 for 2 h. BRET measurements were taken at 37° C. using the CLARIOstar (BMG Labtech). Filtered light emissions were sequentially measured for 1 s in each of the ‘donor wavelength window’ (410-490 nm) and ‘acceptor wavelength window’ (520-620 nm).
For antagonist assays, cells were pre-incubated in EnduRen for 2 h. The antagonists (10 μM) were added and the assay was read for 30 min. Subsequently, the agonists (CXCL8 10 nM, AngII 100 nM) were added and the measurements continued for another 1 h.
The BRET signal observed between interacting proteins is normalized by subtracting the background BRET ratio. This can be done in one of two ways (see Pfleger et al. (2006) Cell Signal 18:1664-1670; Pfleger et al. (2006) Nat Protoc 1:336-344): 1) the ratio of the 520-550 nm emission over the 460-490 nm emission for a cell sample containing only the donor construct is subtracted from the same ratio for a sample containing the interacting acceptor and donor fusion proteins; 2) the ratio of the 520-550 nm emission over the 460-490 nm emission for a cell sample treated with vehicle is subtracted from the same ratio for a second aliquot of the same cell sample treated with ligand. In the following examples, the second calculation will be used and the signal is described as ‘ligand-induced BRET’.
The Receptor-Heteromer Investigation Technology (Receptor-HIT) is an assay configuration that provides insights into receptor complexes (Ayoub et al. (2015) PLOS One 10(3):e0119803). It is also known as GPCR-HIT when assessing GPCRs. It is an assay configuration whereby one receptor (eg. CCR2) is labelled with one component (eg. Renilla luciferase variant Rluc8) of a proximity-based reporter system (eg. BRET), the complementary component of which (eg. yellow fluorescent protein Venus) is fused to a receptor interacting partner (eg. β-arrestin 2). Treatment with a ligand (eg. AngII) selective for the receptor untagged with respect to the BRET assay (eg. hemagglutinin epitope-tagged AT1R; HA-AT1R) results in modulation of the proximity of the BRET-tagged receptor and the interacting partner, resulting in a change in BRET signal that is indicative of functional interaction between the two receptors.

[1] = tested on: CCR2 in the presence of unlabelled ETAR; experiment: Receptor-HIT BRET β-arrestin recruitment assay, CCR2/Rluc8+Barr2/Venus+HA-ETAR; assay type: cell-based, human; details: HEK293FT cells

T1 sequence (P25101 21-427): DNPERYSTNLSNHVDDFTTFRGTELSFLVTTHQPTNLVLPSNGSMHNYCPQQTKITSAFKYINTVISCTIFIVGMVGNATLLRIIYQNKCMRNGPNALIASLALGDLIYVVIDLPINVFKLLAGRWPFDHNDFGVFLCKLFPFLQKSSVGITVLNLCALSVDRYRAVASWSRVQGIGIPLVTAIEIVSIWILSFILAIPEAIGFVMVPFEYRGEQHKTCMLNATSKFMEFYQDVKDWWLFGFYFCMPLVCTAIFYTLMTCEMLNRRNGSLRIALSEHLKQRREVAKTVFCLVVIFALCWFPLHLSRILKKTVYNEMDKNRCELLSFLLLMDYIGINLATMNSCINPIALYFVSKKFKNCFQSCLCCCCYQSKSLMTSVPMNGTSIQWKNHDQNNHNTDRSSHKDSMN
T1 sequence (P41597 whole entry): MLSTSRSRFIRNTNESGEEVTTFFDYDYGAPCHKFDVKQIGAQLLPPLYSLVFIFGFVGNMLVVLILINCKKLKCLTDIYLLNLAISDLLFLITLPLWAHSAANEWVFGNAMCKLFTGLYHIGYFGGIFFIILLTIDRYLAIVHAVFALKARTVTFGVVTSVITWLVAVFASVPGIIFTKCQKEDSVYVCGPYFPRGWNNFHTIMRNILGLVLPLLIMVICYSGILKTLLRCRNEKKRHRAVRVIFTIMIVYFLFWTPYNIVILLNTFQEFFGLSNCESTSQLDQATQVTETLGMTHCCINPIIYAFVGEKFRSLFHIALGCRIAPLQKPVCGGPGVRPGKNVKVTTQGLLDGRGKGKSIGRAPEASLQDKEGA

Compound | β-arrestin recruitment to ETAR stimulated with ET-1 (ligand-induced BRET) (ETAR and CCR2 heteromer; ET-1 alone, antagonists 10 μM) | hyperactivation of β-arrestin recruitment to ETAR (ligand-induced BRET) (ETAR and CCR2 heteromer; antagonists 10 μM) | hyperactivation of β-arrestin recruitment to ETAR (ligand-induced BRET) (ETAR and CCR2 heteromer; antagonists 10 μM, listed as sparsentan) | increased recruitment of β-arrestin to CCR2 (ligand-induced BRET) ([1]; CCL2/MCP-1 and ET-1 present, antagonists 10 μM) | agonist-induced β-arrestin recruitment to ETAR (ligand-induced BRET) (ETAR and CCR2 heteromer) | agonist-induced β-arrestin recruitment to ETAR (ligand-induced BRET) (ETAR and CCR2 heteromer; listed as CCL2) | agonist-induced β-arrestin recruitment to ETAR (ligand-induced BRET) (ETAR and CCR2 heteromer; listed as CCL2/MCP1) | agonist-induced β-arrestin recruitment to CCR2 (ligand-induced BRET) ([1]; no antagonist)
CCCCC1=NC2(CCCC2)C(=O)N1Cc1ccc(-c2ccccc2S(=O)(=O)Nc2noc(C)c2C)c(COCC)c1 [Sparsentan, 2-[4-[(2-butyl-4-oxo-1,3-diazaspiro[4.4]non-1-en-3-yl)methyl]-2-(ethoxymethyl)phenyl]-N-(4,5-dimethyl-1,2-oxazol-3-yl)benzenesulfonamide] | inhibits this signalling independent of CCR2 activation | abrogate the hyperactivation when both CCL2/CMP-1 and ET-1 ligands are present but not cease recruitment of β-arrestin to ETAR | abrogated | increased recruitment of β-arrestin is not observed | – | – | – | –
endothelin-1 [ET-1] | – | – | – | – | β-arrestin is recruited to ETAR; also recorded: recruit β-arrestin at a low magnitude | – | – | –
monocyte chemoattractant protein-1 [CCL2/MCP-1] | – | – | – | – | β-arrestin is recruited to ETAR | β-arrestin recruitment to ETAR occurs | β-arrestin is recruited to ETAR | β-arrestin is recruited to CCR2

Source: patent publication US20240173302A1, “TREATMENT OF INFLAMMATORY DISEASES” (DIMERIX BIOSCIENCE PTY LTD, priority 2021, published 2024)
